{"source": "patent US20050287514A1", "about": "“Compositions and methods useful for HCV infection” (Vertex Pharmaceuticals Incorporated, priority 2003, published 2005)", "system": "HCV", "experiment": "Inhibition of HCV infection of cryopreserved human fetal liver cells (cell-associated HCV RNA by multiplex RT-PCR)", "format": "cell-based", "conditions": "VX-950 at 0.2 uM or greater; cryopreserved human fetal liver cells in HDM2; 15 hours inoculation plus additional 47 hours incubation", "description": "FIG. 3 depicts the inhibition of HCV infection of cryopreserved human fetal liver cells by the HCV NS3·4a protease inhibitor VX-950 (see WO 02/18369).\nCryopreserved human fetal liver cells were thawed and allowed to adhere to wells of a collagen coated 96-well plate for 6 hours at 37° C. Non-adherent cells were removed and medium replaced with hormonally defined medium containing DMEM, BSA, nicotinamide, EGF, insulin, transferrin, and hydrocortisone (HDM2). The wells were inoculated with HCV in the presence of different concentrations of VX-950 and incubated for 15 hours at 37° C. The non-adsorbed virus was removed, the cultures washed twice with DMEM, then fresh HDM2 containing the same concentration of VX-950 was added. After incubation for an additional 47 hours, the wells were rinsed twice with PBS then the cells lysed with chaotropic buffer and RNA isolated using the Qiagen 96-well RNeasy procedure. HCV RNA was quantitated using the multiplex RT-PCR method and the mean and standard deviation of the triplicate samples at each concentration of inhibitor are presented (HCV copy number per well). […] See, FIG. 3.", "data": [{"smiles": "CCC[C@H](NC(=O)C1[C@H]2CCC[C@H]2CN1C(=O)[C@@H](NC(=O)[C@@H](NC(=O)c1cnccn1)C1CCCCC1)C(C)(C)C)C(=O)C(=O)NC1CC1", "note": "(stereo partly shown) [VX-950]", "values": [{"measurement": "inhibition of HCV replication (HCV RNA copy number per well)", "value": "nearly complete inhibition of HCV replication"}]}]}
